# Laboratory results taken from patent US10781224B2, “Bis(oxymethyl)phosphinic acid and biogenic metal salts thereof as regulators of plant growth and development” (priority 2016, dated 2020).
# Test system: winter wheat (Vershin variety)
# Experiment: Winter wheat seed treatment with BHMPA salts: germinating power (length and mass of roots and sprouts)
# Format: in vivo
# Method: Experimental versions—soaking seeds in BHMPA solutions and solutions of BHMPA Ca, Mg, Na, Co, Mn, Cu, and Zn salts at 1·10^−6-1·10^−12% concentrations (doses). The studies were conducted in laboratory in Petri dishes; seed bed—two layers of filter paper. 50 seeds soaked in water (control) and in the solutions of the tested compounds (experimental) were placed into each dish. Wheat, corn, and rice seeds were exposed for one hour.
# Seed germination energy and rate were calculated in percent as an arithmetic mean of the four experimental results (germination energy on the 4th day, wheat germination on the 8th day, rice and corn germination—on the 7th day). Germination was determined based on the germinating power indicators (length of the roots and sprouts and their wet and dry mass per 100 shoots).
# The effect of pre-sowing seed treatment with the claimed BHMPA salts of biogenic metals was studied on winter wheat (Vershin variety), corn (Krasnodar 385 MV variety), and rice (Diamant variety).
# The above data describe the seed viability only at the initial stage of germination, while the germination ability at the later stage of germination is defined by the initial germinating power. The method for the determination of the germinating power comprises measuring the height of the sprouts and primary roots, as well as the biomass and the dry mass thereof per 100 seedlings. [M. A. Kartuzova. Initial Germinating Power as Method of Biological Assessment of Seed Quality. Selection and Seed Farming, #2, 1953].
# [1] = comparative study, 1·10^−11% solution
smiles,measurement,setting,value
"O=P([O-])(CO)CO.O=P([O-])(CO)CO.[Mg+2] [Mg-salt, Magnesium BHMPA Salt]","Length, root",1·10^−6% solution,9.2 cm
same,"Length, root, + % to control",1·10^−6% solution,−1%
same,"Length, sprout",1·10^−6% solution,7.1 cm
same,"Length, sprout, + % to control",1·10^−6% solution,−1%
same,"Mass, dry, root",1·10^−6% solution,0.57 g/100 plantlings
same,"Mass, dry, root, + % to control",1·10^−6% solution,−2%
same,"Mass, dry, sprout",1·10^−6% solution,0.65 g/100 plantlings
same,"Mass, dry, sprout, + % to control",1·10^−6% solution,−15%
same,"Mass, wet, root",1·10^−6% solution,2.55 g/100 plantlings
same,"Mass, wet, root, + % to control",1·10^−6% solution,−1%
same,"Mass, wet, sprout",1·10^−6% solution,5.45 g/100 plantlings
same,"Mass, wet, sprout, + % to control",1·10^−6% solution,−2.5%
same,germinating power results vs control,1·10^−6% solution,lower than those of the control
same,"Length, root",1·10^−7% solution,10.0 cm
same,"Length, root, + % to control",1·10^−7% solution,7.5%
same,"Length, sprout",1·10^−7% solution,7.2 cm
same,"Length, sprout, + % to control",1·10^−7% solution,0%
same,"Mass, dry, root",1·10^−7% solution,0.61 g/100 plantlings
same,"Mass, dry, root, + % to control",1·10^−7% solution,5%
same,"Mass, dry, sprout",1·10^−7% solution,0.79 g/100 plantlings
same,"Mass, dry, sprout, + % to control",1·10^−7% solution,2.6%
same,"Mass, wet, root",1·10^−7% solution,2.68 g/100 plantlings
same,"Mass, wet, root, + % to control",1·10^−7% solution,3%
same,"Mass, wet, sprout",1·10^−7% solution,5.63 g/100 plantlings
same,"Mass, wet, sprout, + % to control",1·10^−7% solution,0.7%
same,"Length, root",1·10^−8% solution,10.0 cm
same,"Length, root, + % to control",1·10^−8% solution,7.5%
same,"Length, sprout",1·10^−8% solution,7.4 cm
same,"Length, sprout, + % to control",1·10^−8% solution,3%
same,"Mass, dry, root",1·10^−8% solution,0.62 g/100 plantlings
same,"Mass, dry, root, + % to control",1·10^−8% solution,7%
same,"Mass, dry, sprout",1·10^−8% solution,0.80 g/100 plantlings
same,"Mass, dry, sprout, + % to control",1·10^−8% solution,4%
same,"Mass, wet, root",1·10^−8% solution,2.97 g/100 plantlings
same,"Mass, wet, root, + % to control",1·10^−8% solution,15.5%
same,"Mass, wet, sprout",1·10^−8% solution,5.79 g/100 plantlings
same,"Mass, wet, sprout, + % to control",1·10^−8% solution,3.6%
same,"Length, root",1·10^−9% solution,10.9 cm
same,"Length, root, + % to control",1·10^−9% solution,17%
same,"Length, sprout",1·10^−9% solution,7.5 cm
same,"Length, sprout, + % to control",1·10^−9% solution,4%
same,"Mass, dry, root",1·10^−9% solution,0.63 g/100 plantlings
same,"Mass, dry, root, + % to control",1·10^−9% solution,8.6%
same,"Mass, dry, sprout",1·10^−9% solution,0.81 g/100 plantlings
same,"Mass, dry, sprout, + % to control",1·10^−9% solution,5%
same,"Mass, wet, root",1·10^−9% solution,2.98 g/100 plantlings
same,"Mass, wet, root, + % to control",1·10^−9% solution,16%
same,"Mass, wet, sprout",1·10^−9% solution,5.81 g/100 plantlings
same,"Mass, wet, sprout, + % to control",1·10^−9% solution,4%
same,"Length, root",1·10^−10% solution,11.3 cm
same,"Length, root, + % to control",1·10^−10% solution,21.5%
same,"Length, sprout",1·10^−10% solution,7.5 cm
same,"Length, sprout, + % to control",1·10^−10% solution,4%
same,"Mass, dry, root",1·10^−10% solution,0.66 g/100 plantlings
same,"Mass, dry, root, + % to control",1·10^−10% solution,24%
same,"Mass, dry, sprout",1·10^−10% solution,0.83 g/100 plantlings
same,"Mass, dry, sprout, + % to control",1·10^−10% solution,8%
same,"Mass, wet, root",1·10^−10% solution,2.94 g/100 plantlings
same,"Mass, wet, root, + % to control",1·10^−10% solution,14%
same,"Mass, wet, sprout",1·10^−10% solution,5.84 g/100 plantlings
same,"Mass, wet, sprout, + % to control",1·10^−10% solution,4.5%
same,"Length, root",1·10^−11% solution,12.2 cm
same,"Length, root, + % to control",1·10^−11% solution,31%
same,"Length, sprout",1·10^−11% solution,7.7 cm
same,"Length, sprout, + % to control",1·10^−11% solution,7%
same,"Mass, dry, root",1·10^−11% solution,0.74 g/100 plantlings
same,"Mass, dry, root, + % to control",1·10^−11% solution,27.5%
same,"Mass, dry, sprout",1·10^−11% solution,1.07 g/100 plantlings
same,"Mass, dry, sprout, + % to control",1·10^−11% solution,39%
same,"Mass, wet, root",1·10^−11% solution,3.41 g/100 plantlings
same,"Mass, wet, root, + % to control",1·10^−11% solution,33%
same,"Mass, wet, sprout",1·10^−11% solution,5.94 g/100 plantlings
same,"Mass, wet, sprout, + % to control",1·10^−11% solution,6%
same,"Length, root",1·10^−12% solution,12.1 cm
same,"Length, root, + % to control",1·10^−12% solution,30%
same,"Length, sprout",1·10^−12% solution,7.6 cm
same,"Length, sprout, + % to control",1·10^−12% solution,5.5%
same,"Mass, dry, root",1·10^−12% solution,0.69 g/100 plantlings
same,"Mass, dry, root, + % to control",1·10^−12% solution,19%
same,"Mass, dry, sprout",1·10^−12% solution,0.84 g/100 plantlings
same,"Mass, dry, sprout, + % to control",1·10^−12% solution,9%
same,"Mass, wet, root",1·10^−12% solution,3.11 g/100 plantlings
same,"Mass, wet, root, + % to control",1·10^−12% solution,21%
same,"Mass, wet, sprout",1·10^−12% solution,5.86 g/100 plantlings
same,"Mass, wet, sprout, + % to control",1·10^−12% solution,5%
same,"Length, root",[1],10.0 cm
same,"Length, root, + % to control",[1],15%
same,"Length, sprout",[1],7.2 cm
same,"Length, sprout, + % to control",[1],16%
same,"Mass, dry, root",[1],0.69 g/100 plantlings
same,"Mass, dry, root, + % to control",[1],11%
same,"Mass, dry, sprout",[1],0.57 g/100 plantlings
same,"Mass, dry, sprout, + % to control",[1],12%
same,"Mass, wet, root",[1],5.76 g/100 plantlings
same,"Mass, wet, root, + % to control",[1],59%
same,"Mass, wet, sprout",[1],5.04 g/100 plantlings
same,"Mass, wet, sprout, + % to control",[1],27%
